This is an account of results in PMC5218480 (PLoS ONE, 2017).

This assay concerns MV-4-11 cells. Kind of assay: Gene expression microarray analysis (Affymetrix PrimeView) and GSEA. The class given is cell-based, human. Also on record: RFU PODN (11730768_x_at) / Fold change /veh PODN (11730768_x_at) / RFU LINC00158 (11744669_a_at) / Fold change /veh LINC00158 (11744669_a_at) / RFU DUSP10 (11751237_a_at) / Fold change /veh DUSP10 (11751237_a_at) / RFU ID3 (11757404_x_at) / Fold change /veh ID3 (11757404_x_at) / RFU PLEKHG5 (11737974_s_at) / Fold change /veh PLEKHG5 (11737974_s_at) / RFU LRRC4B (11730491_at) / Fold change /veh LRRC4B (11730491_at) / RFU GIMAP4 (11747438_a_at) / Fold change /veh GIMAP4 (11747438_a_at) / RFU KRT8 (11758183_x_at) / Fold change /veh KRT8 (11758183_x_at) / RFU CNN1 (11734310_a_at) / Fold change /veh CNN1 (11734310_a_at) / RFU VPS37D (11726825_at) / Fold change /veh VPS37D (11726825_at) / RFU C10orf10 (11716522_x_at) / Fold change /veh C10orf10 (11716522_x_at) / RFU KIR2DL2 /// KIR2DL4 /// KIR2DL5A /// KIR2DL5B /// KIR2DS1 /// KIR2DS2 /// KIR2DS3 /// KIR2DS4 /// KIR3DL3 /// KIR3DL3 /// KIR3DS1 (11738374_at) / Fold change /veh KIR2DL2 /// KIR2DL4 /// KIR2DL5A /// KIR2DL5B /// KIR2DS1 /// KIR2DS2 /// KIR2DS3 /// KIR2DS4 /// KIR3DL3 /// KIR3DL3 /// KIR3DS1 (11738374_at) / RFU C1QL1 (11718748_at) / Fold change /veh C1QL1 (11718748_at) / RFU TMPRSS4 (11747572_a_at) / Fold change /veh TMPRSS4 (11747572_a_at) / RFU HAMP (11756126_x_at) / Fold change /veh HAMP (11756126_x_at) / RFU RNFT2 (11725882_a_at) / Fold change /veh RNFT2 (11725882_a_at) / RFU NR4A2 (11747474_a_at) / Fold change /veh NR4A2 (11747474_a_at) / RFU ABCC12 (11746883_a_at) / Fold change /veh ABCC12 (11746883_a_at) / RFU TMEM136 (11760407_x_at) / Fold change /veh TMEM136 (11760407_x_at) / RFU CLDN22 /// WWC2 (11732394_at) / Fold change /veh CLDN22 /// WWC2 (11732394_at) / RFU HLA-DPB1 (11760878_x_at) / Fold change /veh HLA-DPB1 (11760878_x_at) / RFU SPINT1 (11716480_a_at) / Fold change /veh SPINT1 (11716480_a_at) / RFU GAP43 (11754022_s_at) / Fold change /veh GAP43 (11754022_s_at) / RFU A4GNT (11735810_at) / Fold change /veh A4GNT (11735810_at) / RFU PRB3 (11715151_x_at) / Fold change /veh PRB3 (11715151_x_at) / RFU TUBB4B (11761932_at) / Fold change /veh TUBB4B (11761932_at) / RFU CAPN14 (11732068_a_at) / Fold change /veh CAPN14 (11732068_a_at) / RFU TMCC2 (11721928_a_at) / Fold change /veh TMCC2 (11721928_a_at) / RFU IRGQ (11745062_a_at) / Fold change /veh IRGQ (11745062_a_at) / RFU FAM174B (11720279_a_at) / Fold change /veh FAM174B (11720279_a_at) / RFU TMPRSS4 (11748680_a_at) / Fold change /veh TMPRSS4 (11748680_a_at) / RFU FAM212B (11763350_a_at) / Fold change /veh FAM212B (11763350_a_at) / RFU PLEKHG5 (11743358_a_at) / Fold change /veh PLEKHG5 (11743358_a_at) / RFU ZSCAN30 (11745921_a_at) / Fold change /veh ZSCAN30 (11745921_a_at) / RFU CMKLR1 (11741424_a_at) / Fold change /veh CMKLR1 (11741424_a_at) / RFU LOC101060620 /// MAPK8IP1 (11723275_at) / Fold change /veh LOC101060620 /// MAPK8IP1 (11723275_at) / RFU SPTSSB (11747773_x_at) / Fold change /veh SPTSSB (11747773_x_at) / RFU PRSS12 (11739890_at) / Fold change /veh PRSS12 (11739890_at) / RFU BIN1 (11741810_x_at) / Fold change /veh BIN1 (11741810_x_at) / RFU WNT11 (11732464_a_at) / Fold change /veh WNT11 (11732464_a_at) / RFU C10orf10 (11716521_a_at) / Fold change /veh C10orf10 (11716521_a_at) / RFU C5orf56 (11738089_at) / Fold change /veh C5orf56 (11738089_at) / RFU CYB561 (11721691_x_at) / Fold change /veh CYB561 (11721691_x_at) / RFU ANKRD19P (11752326_a_at) / Fold change /veh ANKRD19P (11752326_a_at) / RFU OR2T12 /// OR2T33 /// OR2T8 (11738714_s_at) / Fold change /veh OR2T12 /// OR2T33 /// OR2T8 (11738714_s_at) / RFU VCAN (11748164_a_at) / Fold change /veh VCAN (11748164_a_at) / RFU JSRP1 (11732532_at) / Fold change /veh JSRP1 (11732532_at) / RFU KRTAP10-11 (11738290_x_at) / Fold change /veh KRTAP10-11 (11738290_x_at) / RFU MYO3A (11730013_a_at) / Fold change /veh MYO3A (11730013_a_at) / RFU EBF3 (11725865_a_at) / Fold change /veh EBF3 (11725865_a_at) / RFU CAMK2N1 (11719241_x_at) / Fold change /veh CAMK2N1 (11719241_x_at) / RFU C5orf56 (11738088_a_at) / Fold change /veh C5orf56 (11738088_a_at) / RFU OLFML3 (11715873_a_at) / Fold change /veh OLFML3 (11715873_a_at) / RFU LOC100653217 /// NTM (11731650_a_at) / Fold change /veh LOC100653217 /// NTM (11731650_a_at) / RFU MAPK11 (11762145_a_at) / Fold change /veh MAPK11 (11762145_a_at) / RFU FIZ1 (11724087_x_at) / Fold change /veh FIZ1 (11724087_x_at) / RFU OASL (11726364_x_at) / Fold change /veh OASL (11726364_x_at) / RFU SOX15 (11748057_x_at) / Fold change /veh SOX15 (11748057_x_at) / RFU CD79A (11719716_a_at) / Fold change /veh CD79A (11719716_a_at) / RFU HIST1H1D (11736915_at) / Fold change /veh HIST1H1D (11736915_at) / RFU CASKIN2 (11723855_a_at) / Fold change /veh CASKIN2 (11723855_a_at) / RFU LOC730098 (11760151_x_at) / Fold change /veh LOC730098 (11760151_x_at) / RFU OR4N2 (11742367_at) / Fold change /veh OR4N2 (11742367_at) / RFU PRRT2 (11749266_a_at) / Fold change /veh PRRT2 (11749266_a_at) / RFU SNX32 (11753110_a_at) / Fold change /veh SNX32 (11753110_a_at) / RFU CDHR5 (11726645_a_at) / Fold change /veh CDHR5 (11726645_a_at) / RFU RCAN1 (11760418_a_at) / Fold change /veh RCAN1 (11760418_a_at) / RFU FAM167A (11723789_a_at) / Fold change /veh FAM167A (11723789_a_at) / RFU FAM26E (11764081_at) / Fold change /veh FAM26E (11764081_at) / RFU ISYNA1 (11749810_s_at) / Fold change /veh ISYNA1 (11749810_s_at) / RFU ACY1 (11761880_at) / Fold change /veh ACY1 (11761880_at) / RFU 11764098_at / Fold change /veh 11764098_at / RFU SAMD14 (11745864_x_at) / Fold change /veh SAMD14 (11745864_x_at) / RFU NPB (11741838_a_at) / Fold change /veh NPB (11741838_a_at) / RFU TMPRSS6 (11731388_a_at) / Fold change /veh TMPRSS6 (11731388_a_at) / RFU KRTAP10-2 (11738614_at) / Fold change /veh KRTAP10-2 (11738614_at) / RFU ARHGAP8 /// PRR5-ARHGAP8 (11727945_x_at) / Fold change /veh ARHGAP8 /// PRR5-ARHGAP8 (11727945_x_at) / RFU KRTAP5-7 /// NADSYN1 (11734609_at) / Fold change /veh KRTAP5-7 /// NADSYN1 (11734609_at) / RFU RASL12 (11751679_a_at) / Fold change /veh RASL12 (11751679_a_at) / RFU CDKN2B (11736163_a_at) / Fold change /veh CDKN2B (11736163_a_at) / RFU PRF1 (11729649_at) / Fold change /veh PRF1 (11729649_at) / RFU, ZNF638 /// ZNF638-IT1 / Fold change vs veh, ZNF638 /// ZNF638-IT1 / RFU, PANK3 / Fold change vs veh, PANK3 / RFU, SH3YL1 / Fold change vs veh, SH3YL1 / RFU, ZEB2 / Fold change vs veh, ZEB2 / RFU, NRIP1 / Fold change vs veh, NRIP1 / RFU, PTTG1IP / Fold change vs veh, PTTG1IP / RFU, CAPN2 / Fold change vs veh, CAPN2 / RFU, MED14 / Fold change vs veh, MED14 / RFU, SNORA58 / Fold change vs veh, SNORA58 / RFU, C1orf63 / Fold change vs veh, C1orf63 / RFU, LRRFIP1 / Fold change vs veh, LRRFIP1 / RFU, NDUFAF7 / Fold change vs veh, NDUFAF7 / RFU, SLC12A2 / Fold change vs veh, SLC12A2 / RFU, IBTK / Fold change vs veh, IBTK / RFU, ESF1 / Fold change vs veh, ESF1 / Fold change vs veh, TMEM50B / RFU, TAOK1 / Fold change vs veh, TAOK1 / RFU, ACBD3 / Fold change vs veh, ACBD3 / RFU, TMA16 / Fold change vs veh, TMA16 / RFU, RWDD3 / Fold change vs veh, RWDD3 / RFU, BCAT1 / Fold change vs veh, BCAT1 / RFU, EDEM3 / Fold change vs veh, EDEM3 / RFU, TMEM33 / Fold change vs veh, TMEM33 / RFU, WDR75 / Fold change vs veh, WDR75 / RFU, AHCTF1 / Fold change vs veh, AHCTF1 / RFU, TFRC / Fold change vs veh, TFRC / RFU, ZDHHC17 / Fold change vs veh, ZDHHC17 / RFU, NOM1 / Fold change vs veh, NOM1 / RFU, ARL8B / Fold change vs veh, ARL8B / RFU, ZBTB11 / Fold change vs veh, ZBTB11 / RFU, TAMM41 / Fold change vs veh, TAMM41 / RFU, KIAA1704 /// LOC100996395 / Fold change vs veh, KIAA1704 /// LOC100996395 / RFU, ING1 / Fold change vs veh, ING1 / RFU, TRMT61B / Fold change vs veh, TRMT61B / RFU, FUBP3 / Fold change vs veh, FUBP3 / RFU, TP53 / Fold change vs veh, TP53 / RFU, TNKS2 / Fold change vs veh, TNKS2 / RFU, ZFP14 / Fold change vs veh, ZFP14 / RFU, ACTR2 / Fold change vs veh, ACTR2 / RFU, PPP3R1 / Fold change vs veh, PPP3R1 / RFU, PIK3R1 / Fold change vs veh, PIK3R1 / RFU, HNRNPA1 / Fold change vs veh, HNRNPA1 / RFU, RNF170 / Fold change vs veh, RNF170 / RFU, ZNF28 / Fold change vs veh, ZNF28 / RFU, RNGTT / Fold change vs veh, RNGTT / RFU, OGT / Fold change vs veh, OGT / RFU, BRD1 / Fold change vs veh, BRD1 / RFU, MARS / Fold change vs veh, MARS / RFU, ZNF655 / Fold change vs veh, ZNF655 / RFU, FAHD1 / Fold change vs veh, FAHD1 / RFU, BDP1 / Fold change vs veh, BDP1 / RFU, LRRCC1 / Fold change vs veh, LRRCC1 / RFU, ARID1A / Fold change vs veh, ARID1A / RFU, ZNF146 / Fold change vs veh, ZNF146 / RFU, ZNF330 / Fold change vs veh, ZNF330 / RFU, GPN3 / Fold change vs veh, GPN3 / RFU, C9orf123 / Fold change vs veh, C9orf123 / RFU, N4BP2L2 / Fold change vs veh, N4BP2L2 / RFU, ARFIP1 / Fold change vs veh, ARFIP1 / RFU, FAM179B / Fold change vs veh, FAM179B / RFU, BCL10 / Fold change vs veh, BCL10 / RFU, UHRF1BP1L / Fold change vs veh, UHRF1BP1L / RFU, BET1 / Fold change vs veh, BET1 / RFU, CNOT2 / Fold change vs veh, CNOT2 / RFU, ZNF268 / Fold change vs veh, ZNF268 / Fold change vs veh, ZNF507 / RFU, DGCR2 / Fold change vs veh, DGCR2 / RFU, WDSUB1 / Fold change vs veh, WDSUB1 / Fold change vs veh, HSP90B1 /// MIR3652 / RFU, ADSS / Fold change vs veh, ADSS / RFU, GK / Fold change vs veh, GK / RFU, ZNF148 / Fold change vs veh, ZNF148 / RFU, TAF9 / Fold change vs veh, TAF9 / RFU, SLC1A5 / Fold change vs veh, SLC1A5 / RFU, SLMO2 / Fold change vs veh, SLMO2 / RFU, ABCC4 / Fold change vs veh, ABCC4 / RFU, LOC101060439 /// RAP1B / Fold change vs veh, LOC101060439 /// RAP1B / RFU, RFX7 / Fold change vs veh, RFX7 / RFU, GTPBP10 / Fold change vs veh, GTPBP10 / RFU, CNEP1R1 / Fold change vs veh, CNEP1R1 / RFU, BIVM-ERCC5 /// ERCC5 / Fold change vs veh, BIVM-ERCC5 /// ERCC5 / RFU, ILF3 / Fold change vs veh, ILF3 / RFU 11762660_at / Fold change /veh 11762660_at / RFU VCAN (11757783_s_at) / Fold change /veh VCAN (11757783_s_at) / RFU DDX43 (11728927_at) / Fold change /veh DDX43 (11728927_at) / RFU KRT8 (11758188_x_at) / Fold change /veh KRT8 (11758188_x_at) / RFU NKD1 (11759106_at) / Fold change /veh NKD1 (11759106_at) / RFU SRD5A1 (11742802_a_at) / Fold change /veh SRD5A1 (11742802_a_at) / RFU TPSAB1 /// TPSB2 (11721975_s_at) / Fold change /veh TPSAB1 /// TPSB2 (11721975_s_at) / RFU GSTM3 (11746129_a_at) / Fold change /veh GSTM3 (11746129_a_at) / RFU IL23R (11737362_x_at) / Fold change /veh IL23R (11737362_x_at) / RFU TMEM51 (11727254_a_at) / Fold change /veh TMEM51 (11727254_a_at) / RFU PIWIL2 (11732686_x_at) / Fold change /veh PIWIL2 (11732686_x_at) / RFU ORM1 (11744905_x_at) / Fold change /veh ORM1 (11744905_x_at) / RFU CCDC152 (11743942_at) / Fold change /veh CCDC152 (11743942_at) / RFU ECM1 (11717891_a_at) / Fold change /veh ECM1 (11717891_a_at) / RFU IL23R (11748794_a_at) / Fold change /veh IL23R (11748794_a_at) / RFU TNFAIP8L3 (11732012_x_at) / Fold change /veh TNFAIP8L3 (11732012_x_at) / RFU MBOAT4 (11741988_at) / Fold change /veh MBOAT4 (11741988_at) / RFU 11764193_at / Fold change /veh 11764193_at / RFU TMEM53 (11763286_at) / Fold change /veh TMEM53 (11763286_at) / RFU MAGEB2 (11727129_at) / Fold change /veh MAGEB2 (11727129_at) / RFU TMEM200A (11744735_a_at) / Fold change /veh TMEM200A (11744735_a_at) / RFU CCDC152 (11751479_a_at) / Fold change /veh CCDC152 (11751479_a_at) / RFU FAM211A (11726209_a_at) / Fold change /veh FAM211A (11726209_a_at) / RFU RGS16 (11746705_a_at) / Fold change /veh RGS16 (11746705_a_at) / RFU VCAN (11755009_s_at) / Fold change /veh VCAN (11755009_s_at) / RFU RHOB (11743442_s_at) / Fold change /veh RHOB (11743442_s_at) / RFU RGS16 (11720943_a_at) / Fold change /veh RGS16 (11720943_a_at) / RFU RGS16 (11720944_at) / Fold change /veh RGS16 (11720944_at) / RFU, VPS4B / Fold change vs veh, VPS4B / RFU, CREB1 / Fold change vs veh, CREB1 / RFU, DNAJC13 / Fold change vs veh, DNAJC13 / RFU, GNAQ / Fold change vs veh, GNAQ / RFU, CDK5R1 / Fold change vs veh, CDK5R1 / RFU, ZRANB3 / Fold change vs veh, ZRANB3 / RFU, CUL4A / Fold change vs veh, CUL4A / RFU, CCNY / Fold change vs veh, CCNY / RFU, UFL1 / Fold change vs veh, UFL1 / RFU, COG3 / Fold change vs veh, COG3 / RFU, DIAPH2 / Fold change vs veh, DIAPH2 / RFU, SKA2 / Fold change vs veh, SKA2 / RFU, AFF3 / Fold change vs veh, AFF3 / RFU, LMF1 / Fold change vs veh, LMF1 / RFU, IPO11 / Fold change vs veh, IPO11 / RFU, DFFB / Fold change vs veh, DFFB / RFU, FOXP1 / Fold change vs veh, FOXP1 / RFU, CARD8 / Fold change vs veh, CARD8 / RFU, STRN3 / Fold change vs veh, STRN3 / RFU, ADK / Fold change vs veh, ADK / RFU, RASSF2 / Fold change vs veh, RASSF2 / RFU, WIPF1 / Fold change vs veh, WIPF1 / RFU, LARP1B / Fold change vs veh, LARP1B / RFU, RASA1 / Fold change vs veh, RASA1 / RFU, RB1 / Fold change vs veh, RB1 / RFU, PPFIA1 / Fold change vs veh, PPFIA1 / RFU, MAT2A / Fold change vs veh, MAT2A / RFU, CCT5 / Fold change vs veh, CCT5 / RFU, WDR92 / Fold change vs veh, WDR92 / RFU, CUX1 / Fold change vs veh, CUX1 / RFU, TTC7A / Fold change vs veh, TTC7A / RFU, TMEM135 / Fold change vs veh, TMEM135 / RFU, DEPTOR / Fold change vs veh, DEPTOR / RFU, CPM / Fold change vs veh, CPM / RFU, DNAJB6 / Fold change vs veh, DNAJB6 / RFU, CACNA2D3 / Fold change vs veh, CACNA2D3 / RFU, DTX4 / Fold change vs veh, DTX4 / RFU, TFCP2 / Fold change vs veh, TFCP2 / RFU, GMCL1 /// GMCL1P1 / Fold change vs veh, GMCL1 /// GMCL1P1 / RFU, AEBP2 / Fold change vs veh, AEBP2 / RFU, SNHG1 /// SNORD22 /// SNORD25 /// SNORD26 /// SNORD27 /// SNORD28 /// SNORD29 /// SNORD31 / Fold change vs veh, SNHG1 /// SNORD22 /// SNORD25 /// SNORD26 /// SNORD27 /// SNORD28 /// SNORD29 /// SNORD31 / Fold change (Aza/veh), C12orf56 (ProbeSet 11735607_a_at) / Fold change (ACY-1035/veh), C12orf56 (ProbeSet 11735607_a_at) / Fold change (Aza/veh), FGFR1OP (ProbeSet 11751329_s_at) / Fold change (ACY-1035/veh), FGFR1OP (ProbeSet 11751329_s_at) / Fold change (Aza/veh), VPS36 (ProbeSet 11739960_a_at) / Fold change (ACY-1035/veh), VPS36 (ProbeSet 11739960_a_at) / RFU SYPL1 (11715823_x_at) / Fold change /veh SYPL1 (11715823_x_at) / RFU IGFBP7 (11715501_s_at) / Fold change /veh IGFBP7 (11715501_s_at) / RFU REEP3 (11722064_at) / Fold change /veh REEP3 (11722064_at) / RFU IGLL1 (11728026_x_at) / Fold change /veh IGLL1 (11728026_x_at): dose or concentration left out as unconfirmed. To be noted: MV-4-11 cells, 48 hours.

Turning to `Nc1ncn([C@@H]2O[C@H](CO)[C@@H](O)[C@H]2O)c(=O)n1` [azacitidine], the “RFU PIWIL2 (11732686_x_at)” value turned out to be 15.01 RFU.
